A word on the IC50: it is the midpoint of a concentration-inhibition curve.

The results in this text go back to US8415376B2, “Inhibitors of PI3 kinase” (Amgen Inc., priority 2008, dated 2013).

For one assay, the target named is T1, PI3Kα (Homo sapiens, UniProt P42336).
T1 construct: Full length p110 subunits of PI3K α, β and δ, N-terminally labeled with polyHis tag; polyHis (N); made in house; host or cells: Sf9 insect cells (baculovirus)
In words: In vitro PI3 kinase enzyme assay (PI3K ATP loss), alpha. It is filed as biochemical. As to conditions: average if run more than once; read-out: ATP Loss (PBKα) IC50 μM (Avg).

In the next assay the target is T2, PI3Kβ (Homo sapiens, UniProt P42338).
T2 construct: Full length p110 subunits of PI3K α, β and δ, N-terminally labeled with polyHis tag; polyHis (N); made in house; host or cells: Sf9 insect cells (baculovirus)
T2 sequence (P42338 whole entry): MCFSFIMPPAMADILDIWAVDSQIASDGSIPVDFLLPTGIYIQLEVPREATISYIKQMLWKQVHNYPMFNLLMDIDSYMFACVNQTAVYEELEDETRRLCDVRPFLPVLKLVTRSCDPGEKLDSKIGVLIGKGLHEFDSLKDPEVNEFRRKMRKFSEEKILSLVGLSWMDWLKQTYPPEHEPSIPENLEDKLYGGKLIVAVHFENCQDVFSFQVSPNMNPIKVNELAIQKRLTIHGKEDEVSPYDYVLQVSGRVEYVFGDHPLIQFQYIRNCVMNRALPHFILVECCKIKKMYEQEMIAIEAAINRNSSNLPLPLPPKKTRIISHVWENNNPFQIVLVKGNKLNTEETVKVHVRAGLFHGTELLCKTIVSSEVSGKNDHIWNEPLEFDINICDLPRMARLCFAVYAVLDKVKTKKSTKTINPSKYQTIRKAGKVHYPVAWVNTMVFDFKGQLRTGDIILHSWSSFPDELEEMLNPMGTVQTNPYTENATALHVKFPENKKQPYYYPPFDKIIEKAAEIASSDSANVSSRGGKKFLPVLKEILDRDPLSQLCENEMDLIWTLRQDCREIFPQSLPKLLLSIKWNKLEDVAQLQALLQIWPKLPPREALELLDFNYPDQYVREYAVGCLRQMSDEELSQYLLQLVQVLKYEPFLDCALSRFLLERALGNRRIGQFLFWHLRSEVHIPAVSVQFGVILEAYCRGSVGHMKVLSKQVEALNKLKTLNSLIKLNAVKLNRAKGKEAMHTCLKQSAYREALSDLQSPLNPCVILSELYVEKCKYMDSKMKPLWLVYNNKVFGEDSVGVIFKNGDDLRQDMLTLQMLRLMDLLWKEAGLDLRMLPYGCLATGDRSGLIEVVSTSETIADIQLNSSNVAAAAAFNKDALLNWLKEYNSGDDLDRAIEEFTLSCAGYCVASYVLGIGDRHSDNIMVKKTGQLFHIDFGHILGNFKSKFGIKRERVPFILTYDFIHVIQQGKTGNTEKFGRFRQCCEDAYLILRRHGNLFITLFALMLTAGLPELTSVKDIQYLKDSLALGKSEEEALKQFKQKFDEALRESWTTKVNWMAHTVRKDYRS
T2 sequence (P27986 whole entry partner): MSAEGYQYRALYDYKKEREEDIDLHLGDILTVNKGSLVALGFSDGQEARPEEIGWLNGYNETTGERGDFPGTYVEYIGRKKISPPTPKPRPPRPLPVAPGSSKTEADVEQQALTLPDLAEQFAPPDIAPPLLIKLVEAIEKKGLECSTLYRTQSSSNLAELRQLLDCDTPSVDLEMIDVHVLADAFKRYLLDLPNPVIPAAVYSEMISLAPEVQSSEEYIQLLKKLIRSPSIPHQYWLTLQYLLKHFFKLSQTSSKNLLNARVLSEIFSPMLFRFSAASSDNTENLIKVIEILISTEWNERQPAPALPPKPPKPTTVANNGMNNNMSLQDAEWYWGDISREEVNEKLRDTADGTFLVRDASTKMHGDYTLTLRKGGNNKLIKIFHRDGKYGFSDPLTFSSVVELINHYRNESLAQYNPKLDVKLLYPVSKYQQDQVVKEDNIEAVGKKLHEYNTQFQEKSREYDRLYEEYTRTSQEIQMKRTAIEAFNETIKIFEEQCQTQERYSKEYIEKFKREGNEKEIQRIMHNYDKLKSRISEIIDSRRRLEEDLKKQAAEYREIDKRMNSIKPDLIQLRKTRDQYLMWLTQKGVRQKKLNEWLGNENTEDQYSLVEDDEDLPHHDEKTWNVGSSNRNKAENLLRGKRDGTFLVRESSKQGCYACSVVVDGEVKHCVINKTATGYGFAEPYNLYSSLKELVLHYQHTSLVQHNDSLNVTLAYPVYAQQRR
In words: In vitro PI3 kinase enzyme assay (PI3K ATP loss), beta. It is filed as biochemical. Conditions: average if run more than once.

Assay [1] concerns phosphorylation of Akt at Ser473. The experiment in a line: Cell-based phospho-Akt Ser473 assay (HCT116 cell). As to conditions: HCT 116 human colon carcinoma cells, IGF-1 stimulated; average. The text has this:
Cell-Based Phospho-Akt Ser473 Assay (HCT116 Cell)
This assay determines the ability of a compound to inhibit the phosphorylation of […] in Akt using a MSD based sandwich immunoassay (Meso Scale Detection, Meso Scale Discovery (MSD), Gaithersburg, Md.). HCT 116 human colon carcinoma cell lines can be grown in McCoy's 5A growth medium (GIBCO, Carlsbad, Calif.) containing 10% FBS (GIBCO, Carlsbad, Calif.) and X1 Penicillin-streptomycin-glutamine (GIBCO, Carlsbad, Calif.). Prior to the assay, cells can be detached from the culture flask with trypsin, and re-suspended in complete media to give a final concentration of 1.6×10^5 cells per mL. Aliquots (100 μl) of the HCT116 cell suspension can be seeded into each well of a 96 well tissue culture plate to give a final density of 16,000 cells per well. Cells can then be incubated overnight at 37° C.
The following day the cells can be treated with serially diluted test compounds and incubated for 2 hours at 37° C. The culture media on the HCT 116 cells can be replaced with 189 μL McCoys media, supplemented with 0.1% BSA (ICN Biomedicals, Inc., Costa Mesa, Calif.). Compounds can be prepared as either 10 mM or 0.5 mM stock solutions in DMSO, and serially diluted 3 fold in a 10-point dose-response curve to give final concentrations that are 200-fold greater than the desired final test concentration. Aliquots (1 μL) of serially-diluted compounds can be transferred to 96 well tissue culture plates containing the HCT 116 cells. […] As a maximum response control, wells can contain 0.5% DMSO in place of compound. The plates can be mixed at 700 rpm for 2 min to ensure even distribution of the test compound and incubated for 2 hours at 37° C. Cells can then be stimulated with insulin-like growth factor 1 (Sigma, St Louis, Mo.) at final concentration of 100 ng/ml for 15 minutes at 37° C. The media can then be removed and the cells treated with 80 μL cell-lysis buffer (MSD) containing a cocktail of protease and phosphatase inhibitors for one hour at 4° C.
25 μL Cell lysate can then be transferred to pre-blocked MSD assay plates pre-coated with a capture antibody specific for Akt, and the plates can be incubated for 2 hours at room temperature. The cell lysates can then be removed and plates can then be washed four times with 200 μl per well of Tris wash buffer (500 mM Tris, PH 7.5, 1.5 M NaCl, 0.2% Tween-20). Subsequently cells can be incubated for 1 hour at room temperature with a 25 μL solution containing the detection antibody, anti-phospho Akt (Ser 473) labeled with an electrochemiluminescent compound (Meso Scale Discovery SULPHO-TAG™ label, MSD, Gaithersburg, Md.). The detection antibody can be removed and plates can then be washed four times with 200 μL per well of Tris wash buffer. An aliquot of 150 μL of diluted MSD read buffer can then be applied to each well, and the electrochemiluminescent signal can be measured using a MSD SECTOR™ plate reader (Meso Scale Discovery, Gaithersburg, Md.). This instrument measures the intensity of emitted light to determine a quantitative measure of phosphorylated Akt in each well. The dose-response data obtained with each compound can be analyzed and the IC50 inhibition of Akt phosphorylation at Ser473 can be calculated.
Activity data for the compounds tested in the PI3K cell based Akt assay is provided in Table 1 under the column heading HCT116 Cell.

T1 sequence (P42336 whole entry): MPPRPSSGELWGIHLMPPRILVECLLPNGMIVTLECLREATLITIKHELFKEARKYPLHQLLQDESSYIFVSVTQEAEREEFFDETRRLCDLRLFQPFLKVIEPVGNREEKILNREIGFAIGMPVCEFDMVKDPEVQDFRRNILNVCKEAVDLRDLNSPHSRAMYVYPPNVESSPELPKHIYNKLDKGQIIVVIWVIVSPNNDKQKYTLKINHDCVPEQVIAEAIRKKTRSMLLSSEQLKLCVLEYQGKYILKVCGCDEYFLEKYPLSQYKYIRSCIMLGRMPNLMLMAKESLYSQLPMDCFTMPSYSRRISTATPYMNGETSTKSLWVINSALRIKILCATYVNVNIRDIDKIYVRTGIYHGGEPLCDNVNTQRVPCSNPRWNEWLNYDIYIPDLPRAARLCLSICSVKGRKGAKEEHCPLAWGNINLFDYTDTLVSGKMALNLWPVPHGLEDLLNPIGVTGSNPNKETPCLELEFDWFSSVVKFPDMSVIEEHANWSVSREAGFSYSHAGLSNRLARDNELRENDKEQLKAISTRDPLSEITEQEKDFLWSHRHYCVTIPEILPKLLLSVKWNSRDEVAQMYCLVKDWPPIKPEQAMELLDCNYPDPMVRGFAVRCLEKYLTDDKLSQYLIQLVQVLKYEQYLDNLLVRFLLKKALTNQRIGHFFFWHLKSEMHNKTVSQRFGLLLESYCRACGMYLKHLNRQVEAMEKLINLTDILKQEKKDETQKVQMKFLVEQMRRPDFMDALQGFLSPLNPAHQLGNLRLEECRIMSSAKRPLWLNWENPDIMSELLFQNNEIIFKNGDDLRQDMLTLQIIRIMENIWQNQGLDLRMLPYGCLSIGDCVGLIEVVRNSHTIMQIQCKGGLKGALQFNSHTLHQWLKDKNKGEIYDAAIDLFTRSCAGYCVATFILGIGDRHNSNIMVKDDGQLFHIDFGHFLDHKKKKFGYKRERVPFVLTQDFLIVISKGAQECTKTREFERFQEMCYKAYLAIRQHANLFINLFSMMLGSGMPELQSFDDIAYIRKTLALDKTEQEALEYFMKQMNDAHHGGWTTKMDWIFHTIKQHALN
T1 sequence (P27986 whole entry partner): as the sequence (P27986 whole entry partner) above
Protocol for PI3Kα: Full length p110 subunits of PI3K α, β and δ, N-terminally labeled with polyHis tag, can be co-expressed with p85 with Baculo virus expression vectors in sf9 insect cells. P110/p85 heterodimers can be purified by sequential Ni-NTA, Q-HP, Superdex-100 chromatography. Purified α, β and δ isozymes can be stored at −20° C. in 20 mM Tris, pH 8, 0.2M NaCl, 50% glycerol, 5 mM DTT, 2 mM Na cholate. […] The γ isozyme can be purified by sequential Ni-NTA, Superdex-200, Q-HP chromatography. The γ isozyme can be stored frozen at −80° C. in NaH2PO4, pH 8, 0.2M NaCl, 1% ethylene glycol, 2 mM β-mercaptoethanol.
In Vitro PI3 Kinase Enzyme Assays (PI3K Atploss)
PI3K enzyme assays (alpha, beta, delta and gamma) can be performed in 25 μL with the above final concentrations of components in white polyproplyene plates. Phosphatidyl inositol phosphoacceptor, PtdIns(4,5)P2 (eg. P4508) can be obtained from Echelon Biosciences, Salt Lake City, Utah. […] Test compounds can be dissolved in DMSO and diluted with three-fold serial dilutions. The compound in DMSO (1 μL) may be added per test well, and the inhibition relative to reactions containing no compound, with and without enzyme can be determined After assay incubation at RT, the reaction can be stopped and residual ATP can be determined by addition of an equal volume of a commercial ATP bioluminescence kit (Perkin Elmer EasyLite, Perkin Elmer, Waltham, Mass.) according to the manufacturer's instructions, and detected using an Analyst GT luminometer.

Take `O=S(=O)(Nc1cc(-c2ccc3ncc(O)cc3c2)cnc1Cl)c1ccc(F)cc1` [Example 22, N-(2-chloro-5-(3-hydroxy-6-quinolinyl)-3-pyridinyl)-4-fluorobenzenesulfonamide]: the results for the IC50 (at PI3Kα; against PI3Kβ; in assay [1]) were 0.0114 µM, 0.0552 µM and 0.654 µM, respectively.
The like results for `O=S(=O)(Nc1cc(-c2ccc3ncccc3c2)cnc1Cl)c1ccc(F)cc1` [Example 7, N-(2-chloro-5-(6-quinolinyl)-3-pyridinyl)-4-fluorobenzenesulfonamide] were, in that order, 0.0099 µM, 0.0277 µM and 1.3 µM.
For the compound `CN(CC#N)c1cnc2ccc(-c3cnc(Cl)c(NS(=O)(=O)c4ccc(F)cc4)c3)cc2n1` [Example 71, N-(2-chloro-5-(3-((cyanomethyl)(methyl)amino)-6-quinoxalinyl)-3-pyridinyl)-4-fluorobenzenesulfonamide], the IC50 stood at 0.0188 µM at PI3Kα, 0.0934 µM at PI3Kβ and 0.0893 µM in assay [1].
As to `COc1ccc(S(=O)(=O)Nc2cc(-c3ccc4nc(N)ccc4c3)cnc2Cl)cc1` [Example 46, N-(5-(2-amino-6-quinolinyl)-2-chloro-3-pyridinyl)-4-methoxybenzenesulfonamide], the concentration for half-maximal inhibition (IC50) at PI3Kα is 0.136 µM; at PI3Kβ, 0.18 µM; in assay [1], 0.108 µM.
Consider `O=S(=O)(Nc1cc(-c2ccc3nccc(N4CCOCC4)c3c2)cnc1Cl)c1c(Cl)cccc1Cl` [Example 34, 2,6-dichloro-N-(2-chloro-5-(4-(4-morpholinyl)-6-quinolinyl)-3-pyridinyl)benzenesulfonamide], for which the IC50 is 0.0065 µM on PI3Kα, 0.0359 µM at PI3Kβ and 0.0376 µM in assay [1].
For `CC(=O)N1CCN(c2cnc3ccc(-c4cnc(Cl)c(NS(=O)(=O)c5ccc(F)cc5)c4)cc3n2)CC1` [Example 56, N-(5-(3-(4-acetyl-1-piperazinyl)-6-quinoxalinyl)-2-chloro-3-pyridinyl)-4-fluorobenzenesulfonamide], the concentration for half-maximal inhibition (IC50) on PI3Kα was determined as 0.0057 µM; on PI3Kβ it was 0.0318 µM; in assay [1], 0.0236 µM.
With `Oc1cc(-c2ccc3nccc(N4CCOCC4)c3c2)cnc1Cl` [Example 19, 2-chloro-5-(4-(4-morpholinyl)-6-quinolinyl)-3-pyridinol], the IC50 is 0.0258 µM at PI3Kα, 0.644 µM at PI3Kβ and 0.311 µM in assay [1].
`COCC1CCCN1c1cnc2ccc(-c3cnc(Cl)c(NS(=O)(=O)c4ccc(F)cc4)c3)cc2n1` (stereo not drawn) [Example 68, N-(2-chloro-5-(3-(2-(methoxymethyl)-1-pyrrolidinyl)-6-quinoxalinyl)-3-pyridinyl)-4-fluorobenzenesulfonamide]: the concentration for half-maximal inhibition (IC50) on PI3Kα came to 0.0081 µM; on PI3Kβ, 0.0358 µM; in assay [1], 0.0434 µM.
In the same order, the values of `CC(Nc1cnc2ccc(-c3cnc(Cl)c(NS(=O)(=O)c4ccc(F)cc4)c3)cc2n1)c1ccc(F)cc1` (stereo not drawn) [Example 60, N-(2-chloro-5-(3-((1-(4-fluorophenyl)ethyl)amino)-6-quinoxalinyl)-3-pyridinyl)-4-fluorobenzenesulfonamide] are 0.0103 µM, 0.0436 µM and 0.569 µM.
Regarding `CS(=O)(=O)Nc1cc(-c2ccc3nccc(Oc4ccccc4)c3c2)cnc1Cl` [Example 5, N-(2-chloro-5-(4-phenoxy-6-quinolinyl)-3-pyridinyl)methanesulfonamide], the values for the IC50 (on PI3Kα; against PI3Kβ; in assay [1]) were 0.255 µM, 0.105 µM and 1.14 µM, respectively.
Take `O=S(=O)(Nc1cc(-c2ccc3ncc(N4CCNCC4)nc3c2)cnc1Cl)c1ccc(F)cc1` [Example 72, N-(2-chloro-5-(3-(1-piperazinyl)-6-quinoxalinyl)-3-pyridinyl)-4-fluorobenzenesulfonamide]: the IC50 at PI3Kα came out at 0.0049 µM; on PI3Kβ, 0.01 µM; in assay [1] it was 0.0168 µM.
In the case of `CC(C)(C)OC(=O)NCCOc1ccnc2ccc(-c3cnc(Cl)c(NS(=O)(=O)c4ccc(F)cc4)c3)cc12` [Example 3, tert-butyl(2-((6-(6-chloro-5-(((4-fluorophenyl)sulfonyl)amino)-3-pyridinyl)-4-quinolinyl)oxy)ethyl)carbamate], the results for the IC50 (on PI3Kα; at PI3Kβ; in assay [1]) were 0.0678 µM, 0.682 µM and 1.66 µM, respectively.
Regarding `CS(=O)(=O)Nc1cc(-c2ccc3ncccc3c2)cnc1Cl` [Example 12, N-(2-chloro-5-(6-quinolinyl)-3-pyridinyl)methanesulfonamide], the IC50 at PI3Kα came out at 0.0689 µM; on PI3Kβ, 0.365 µM; in assay [1], 2.65 µM.
In the case of `COC1CCCN(c2cnc3ccc(-c4cnc(Cl)c(NS(=O)(=O)c5ccc(F)cc5)c4)cc3n2)C1` (stereo not drawn) [Example 66], the IC50 was 0.0027 µM on PI3Kα, 0.03 µM at PI3Kβ and 0.0405 µM in assay [1].
For the compound `O=S(=O)(Nc1cc(-c2ccc3nccc(N4CCOCC4)c3c2)cnc1Cl)c1ccccc1F` [Example 32, N-(2-chloro-5-(4-(4-morpholinyl)-6-quinolinyl)-3-pyridinyl)-2-fluorobenzenesulfonamide], the results for the IC50 (at PI3Kα; against PI3Kβ; in assay [1]) were 0.005 µM, 0.0248 µM and 0.0117 µM, respectively.
Consider `O=S(=O)(Nc1cc(-c2ccc3ncc(NCCOc4ccccc4)nc3c2)cnc1Cl)c1ccc(F)cc1` [Example 57, N-(2-chloro-5-(3-((2-phenoxyethyl)amino)-6-quinoxalinyl)-3-pyridinyl)-4-fluorobenzenesulfonamide], for which the half-inhibitory concentration (IC50) on PI3Kα came out at 0.0022 µM; against PI3Kβ it was 0.0079 µM; in assay [1], 0.0451 µM.
For the compound `CS(=O)(=O)Nc1cc(-c2ccc3nccc(Cl)c3c2)cnc1Cl` [Example 9, N-(2-chloro-5-(4-chloro-6-quinolinyl)-3-pyridinyl)methanesulfonamide], the IC50 at PI3Kα was 0.0142 µM; against PI3Kβ, 0.052 µM; in assay [1], 2.06 µM.
As to `CC(c1ccccc1)N1CCN(c2ccnc3ccc(-c4cnc(Cl)c(NS(=O)(=O)c5ccc(F)cc5)c4)cc23)CC1` (stereo not drawn) [Example 29, N-(2-chloro-5-(4-(4-(1-phenylethyl)-1-piperazinyl)-6-quinolinyl)-3-pyridinyl)-4-fluorobenzenesulfonamide], the IC50 at PI3Kα amounted to 0.0069 µM; against PI3Kβ, 0.0449 µM; in assay [1], 0.345 µM.
Turning to `O=S(=O)(Nc1cc(-c2ccc3nccc(N4CCC(O)CC4)c3c2)cnc1Cl)c1ccc(F)cc1` [Example 27, N-(2-chloro-5-(4-(4-hydroxy-1-piperidinyl)-6-quinolinyl)-3-pyridinyl)-4-fluorobenzenesulfonamide], the results for the concentration for half-maximal inhibition (IC50) (at PI3Kα; against PI3Kβ; in assay [1]) were 0.0041 µM, 0.0126 µM and 0.176 µM, respectively.
The like results for `COc1ccc(S(=O)(=O)Nc2cc(-c3ccc4nccc(N(C)C)c4c3)cnc2Cl)cc1` [Example 49, N-(2-chloro-5-(4-(dimethylamino)-6-quinolinyl)-3-pyridinyl)-4-methoxybenzenesulfonamide] were, in that order, 0.0074 µM, 0.0151 µM and 0.273 µM.
In the same order, the values of `CC(C)(C)OC(=O)N1CCCC(CNc2cnc3ccc(-c4cnc(Cl)c(NS(=O)(=O)c5ccc(F)cc5)c4)cc3n2)C1` (stereo not drawn) [Example 59, tert-butyl 3-(((7-(6-chloro-5-(((4-fluorophenyl)sulfonyl)amino)-3-pyridinyl)-2-quinoxalinyl)amino)methyl)-1-piperidinecarboxylate] are 0.0031 µM, 0.0225 µM and 0.136 µM.
